In PMC4536891, “Insertion of a xylanase in xylose binding protein results in a xylose-stimulated xylanase” (Biotechnology for Biofuels, 2015):

Experiments:
[1] = molecular target: T1, parental XBP (xylose binding protein, XylF) (Escherichia coli, UniProt P37387); assay: intrinsic tryptophan fluorescence titration; conditions: 20 mM Hepes pH 7.5, 25 °C; 3 µM protein
T1 construct: full XBP expressed in E. coli Rosetta (DE3) and purified; vector, tag and signal peptide of the purified parental XBP not described
T1 sequence (P37387 24-330): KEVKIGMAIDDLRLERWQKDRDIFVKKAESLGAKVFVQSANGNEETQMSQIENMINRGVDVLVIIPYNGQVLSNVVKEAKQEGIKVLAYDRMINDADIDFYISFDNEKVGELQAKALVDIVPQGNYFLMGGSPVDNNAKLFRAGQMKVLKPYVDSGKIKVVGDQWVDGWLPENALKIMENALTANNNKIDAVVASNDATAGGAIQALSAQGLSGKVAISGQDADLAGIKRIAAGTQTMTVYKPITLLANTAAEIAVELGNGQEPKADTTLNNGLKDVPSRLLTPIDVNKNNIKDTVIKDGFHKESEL

[2] = molecular target: T2, parental XynA (Bacillus subtilis, UniProt P18429); assay: RBB-xylan hydrolysis by culture supernatant, dye release at […] nm; assay type: biochemical; conditions: 1% (m/v) D-xylose; acetate pH 5.5, 37 °C; product inhibition
T2 construct: GH11 xylanase, mature 185 residues; activity ratio measured in culture supernatants

[3] = molecular target: T3, 2621B (XynA inserted in XBP at position 262); assay: intrinsic tryptophan fluorescence titration; assay type: binding, Escherichia coli; conditions: 20 mM Hepes pH 7.5, 25 °C; 3 µM protein; XBP domain site, allosteric activator of xylanase
T3 construct: gene xylF; single polypeptide: XBP to Q262, linker GGGG, XynA (1-185), linker GA, XBP from residue 263; pET28a, E. coli Rosetta (DE3), Ni-NTA (His tag not described); with Endo-1,4-beta-xylanase A

[4] = molecular target: T4, 2091A (XynA inserted in XBP at position 209); assay: intrinsic tryptophan fluorescence titration; assay type: binding, Escherichia coli; conditions: 20 mM Hepes pH 7.5, 25 °C; 3 µM protein; XBP domain site, allosteric activator of xylanase
T4 construct: gene xylF; single polypeptide: XBP to A209, linker AG, XynA (1-185), linker GGA, XBP from residue 210; pET28a, E. coli Rosetta (DE3), Ni-NTA (His tag not described); with Endo-1,4-beta-xylanase A

In the case of OC1OC[C@@H](O)[C@H](O)[C@H]1O (stereo partly drawn) [D-xylose], the Kd [1] is reported as 0.14 ± 0.03 µM, the “+xyl/-xyl ratio^a” value [2] is reported as 0.80 ± 0.04 and the Kd [3] is reported as 0.16 ± 0.01 µM. It also gave a Kd [4] of 0.15 ± 0.02 µM.
